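These data come from cells grown in 96-well plates and exposed to compound for 48 hours at five concentrations. TGI denotes the concentration required for complete inhibition of growth.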
Experiments:
Experiment in all cases: NCI tumour cell line growth inhibition, 48 h
OVCAR-8 ovarian = test system: OVCAR-8 ovarian
HT29 colon = test system: HT29 colon
CCRF-CEM leukemia = test system: CCRF-CEM leukemia
RPMI-8226 leukemia = test system: RPMI-8226 leukemia
SNB-75 CNS = test system: SNB-75 CNS
SK-MEL-2 melanoma = test system: SK-MEL-2 melanoma
RXF 393 renal = test system: RXF 393 renal
A549 NSCLC = test system: A549 NSCLC
OVCAR-5 ovarian = test system: OVCAR-5 ovarian
HCT-15 colon = test system: HCT-15 colon
786-0 renal = test system: 786-0 renal

CS(=O)(=O)O[C@H]1[C@H](O)c2ccccc2[C@@H]1N=[N+]=[N-]
TGI (OVCAR-8 ovarian): > 100 µM | TGI (HT29 colon): > 100 µM | TGI (CCRF-CEM leukemia): > 100 µM | TGI (RPMI-8226 leukemia): > 100 µM | TGI (SNB-75 CNS): > 100 µM | TGI (SK-MEL-2 melanoma): > 100 µM | TGI (RXF 393 renal): > 100 µM | TGI (A549 NSCLC): > 100 µM | TGI (OVCAR-5 ovarian): > 100 µM | TGI (HCT-15 colon): > 100 µM | TGI (786-0 renal): > 100 µM

CCOC(=O)C(NC(=O)CC)(Nc1ccc(F)cc1F)C(F)(F)F (stereo not drawn)
TGI (OVCAR-8 ovarian): > 100 µM | TGI (HT29 colon): > 100 µM | TGI (CCRF-CEM leukemia): > 100 µM | TGI (RPMI-8226 leukemia): > 100 µM | TGI (SNB-75 CNS): > 100 µM | TGI (SK-MEL-2 melanoma): > 100 µM | TGI (RXF 393 renal): > 100 µM | TGI (A549 NSCLC): > 100 µM | TGI (OVCAR-5 ovarian): > 100 µM | TGI (HCT-15 colon): > 100 µM | TGI (786-0 renal): > 100 µM

Nc1cc(Cl)ccc1SSc1ccc(Cl)cc1N
TGI (OVCAR-8 ovarian): > 100 µM | TGI (HT29 colon): 42.3 µM | TGI (CCRF-CEM leukemia): > 100 µM | TGI (RPMI-8226 leukemia): > 100 µM | TGI (SNB-75 CNS): 37.6 µM | TGI (SK-MEL-2 melanoma): 35 µM | TGI (RXF 393 renal): > 100 µM | TGI (A549 NSCLC): > 100 µM | TGI (OVCAR-5 ovarian): 30.3 µM | TGI (HCT-15 colon): 8.8 µM | TGI (786-0 renal): 25.9 µM

CCOC(=O)c1sc2nc1CSc1sc(=S)sc1SCc1nc(sc1C(=O)OCC)-c1nc(c(C(=O)OCC)s1)CSc1sc(=S)sc1SCc1nc-2sc1C(=O)OCC
TGI (OVCAR-8 ovarian): > 10 µM | TGI (HT29 colon): > 10 µM | TGI (CCRF-CEM leukemia): > 10 µM | TGI (RPMI-8226 leukemia): > 10 µM | TGI (SNB-75 CNS): > 10 µM | TGI (SK-MEL-2 melanoma): > 10 µM | TGI (RXF 393 renal): > 10 µM | TGI (A549 NSCLC): > 10 µM | TGI (OVCAR-5 ovarian): > 10 µM | TGI (HCT-15 colon): > 10 µM | TGI (786-0 renal): > 10 µM

C(#CC1(Nc2ccccc2)CCN(Cc2ccccc2)CC1)C1(Nc2ccccc2)CCN(Cc2ccccc2)CC1
TGI (OVCAR-8 ovarian): 53.5 µM | TGI (HT29 colon): 39.4 µM | TGI (CCRF-CEM leukemia): 37.3 µM | TGI (RPMI-8226 leukemia): 4.88 µM | TGI (SNB-75 CNS): 29.7 µM | TGI (SK-MEL-2 melanoma): 20.1 µM | TGI (RXF 393 renal): 25.7 µM | TGI (A549 NSCLC): > 56.2 µM | TGI (OVCAR-5 ovarian): > 56.2 µM | TGI (HCT-15 colon): > 46.4 µM | TGI (786-0 renal): 39.5 µM

Cc1cc2c(cc1Cl)SC(NNC1=NCCN1)=NS2(=O)=O
TGI (OVCAR-8 ovarian): > 10 µM | TGI (HT29 colon): > 10 µM | TGI (CCRF-CEM leukemia): > 10 µM | TGI (RPMI-8226 leukemia): > 10 µM | TGI (SNB-75 CNS): > 10 µM | TGI (SK-MEL-2 melanoma): > 10 µM | TGI (RXF 393 renal): > 10 µM | TGI (A549 NSCLC): > 10 µM | TGI (OVCAR-5 ovarian): > 10 µM | TGI (HCT-15 colon): > 10 µM | TGI (786-0 renal): > 10 µM

COC(=O)/N=[N+](\[O-])C(c1ccccc1)c1ccccc1
TGI (OVCAR-8 ovarian): > 100 µM | TGI (HT29 colon): > 100 µM | TGI (CCRF-CEM leukemia): > 100 µM | TGI (RPMI-8226 leukemia): > 100 µM | TGI (SNB-75 CNS): > 100 µM | TGI (SK-MEL-2 melanoma): > 100 µM | TGI (RXF 393 renal): > 100 µM | TGI (A549 NSCLC): > 100 µM | TGI (OVCAR-5 ovarian): > 100 µM | TGI (HCT-15 colon): > 100 µM | TGI (786-0 renal): > 100 µM

O=CN1CCC23CC(O)CCC2C1Cc1cc(Oc2nnnn2-c2ccccc2)cc(O)c13 (stereo not drawn)
TGI (OVCAR-8 ovarian): > 100 µM | TGI (HT29 colon): > 100 µM | TGI (CCRF-CEM leukemia): > 100 µM | TGI (RPMI-8226 leukemia): > 100 µM | TGI (SNB-75 CNS): > 100 µM | TGI (SK-MEL-2 melanoma): > 100 µM | TGI (RXF 393 renal): > 100 µM | TGI (A549 NSCLC): > 100 µM | TGI (OVCAR-5 ovarian): > 100 µM | TGI (HCT-15 colon): > 100 µM | TGI (786-0 renal): > 100 µM
